# Source: EPA's ToxRefDB 2
# Legend:
# [1] = system: dog; conditions: Subchronic oral toxicity in nonrodent, beagle, Feed, dose end: 90 day, group: systemic, systemic / clinical chemistry / alkaline phosphatase (alp/alk) / alkaline phosphatase (alp/alk) + systemic / organ weight / liver / absolute…
# [2] = system: rat; conditions: Subchronic oral toxicity in rodents, other, Feed, dose end: 90 day, group: systemic
# [3] = system: dog; conditions: Chronic toxicity, beagle, Oral, Feed, dose end: 52 week, group: systemic
# [4] = system: rat; conditions: Combined chronic toxicity/carcinogenicity, fischer, Oral, Feed, dose end: 24 month, group: systemic
# [5] = system: mouse; conditions: Carcinogenicity, cd1, Oral, Feed, dose end: 18 month, group: systemic
# [6] = system: rat; conditions: Subchronic oral toxicity in rodents, fischer, Feed, dose end: 3 month, group: systemic
# [7] = system: rat; conditions: Multigenerational reproductive toxicity study, sprague dawley, Oral, Feed, dose end: 2 generation
# [8] = system: mouse; conditions: Subchronic oral toxicity in rodents, cd1, Feed, dose end: 13 week, group: systemic, systemic / pathology microscopic / adrenal gland / vacuolization cytoplasmic + systemic / pathology microscopic / bone marrow / …
# [9] = system: dog; conditions: Subchronic oral toxicity in nonrodent, beagle, Feed, dose end: 13 week, group: systemic, systemic / pathology microscopic / intestine large / vacuolization + systemic / pathology microscopic / intestine small / vacuolization + …
# [10] = system: rat; conditions: Subchronic oral toxicity in rodents, fischer, Feed, dose end: 13 week, group: systemic, systemic / pathology microscopic / thyroid gland / vacuolization + systemic / organ weight / heart / nos
# [11] = system: dog; conditions: Subchronic oral toxicity in nonrodent, beagle, Capsule, dose end: 90 day, group: systemic, systemic / clinical chemistry / [other] / [other] + systemic / clinical chemistry / alkaline phosphatase (alp/alk) / alkaline phosphatase (…
# [12] = system: rat; conditions: Combined chronic toxicity/carcinogenicity, sprague dawley, Oral, Feed, dose end: 24 month, group: systemic
# [13] = system: rat; conditions: Prenatal developmental toxicity study, other, Oral, Gavage/Intubation, dose end: 15 GD
# [14] = system: rat; conditions: Subchronic oral toxicity in rodents, other, Feed, dose end: 90 day, group: systemic, systemic / in life observation / body weight / body weight gain + systemic / pathology microscopic / kidney / regeneration + systemic / …
# [15] = system: mouse; conditions: Carcinogenicity, cd1, Oral, Feed, dose end: 78 week, group: systemic
# [16] = system: rat; conditions: Multigenerational reproductive toxicity study, sprague dawley, Oral, Feed, dose end: 2 generation; remark: listed apart in the source
# [17] = system: rat; conditions: Subchronic oral toxicity in rodents, sprague dawley, Feed, dose end: 90 day, group: systemic, systemic / organ weight / kidney / absolute + systemic / organ weight / kidney / relative to body weight + systemic / organ weight / kidney…
# [18] = systemic / pathology microscopic / liver / inclusion body intracytoplasmic
# [19] = systemic / pathology microscopic / lymph node / vacuolization + systemic / pathology microscopic / spleen / vacuolization + systemic / organ…
# [20] = systemic / pathology microscopic / thyroid gland / vacuolization
# [21] = systemic / pathology microscopic / thyroid gland / vacuolization + systemic / clinical chemistry / alkaline phosphatase (alp/alk) / alkaline…
# [22] = systemic / pathology microscopic / heart / cardiomyopathy + systemic / pathology microscopic / lymph node / histiocytosis + systemic / …
# [23] = systemic / pathology microscopic / lymph node / histiocytosis + systemic / pathology microscopic / spleen / histiocytosis + systemic / …
# [24] = group: offspring, systemic / in life observation / body weight / offspring (pup) weight
# [25] = group: parental, systemic / organ weight / heart / absolute + systemic / organ weight / heart / relative to body weight + systemic / organ weight / kidney / …
# [26] = group: reproductive, reproductive / offspring survival early / litter size / litter size + reproductive / offspring survival early / birth index / live birth …
# [27] = systemic / in life observation / body weight / body weight + systemic / in life observation / body weight / body weight gain + systemic / in…
# [28] = group: developmental, developmental / developmental malformation / aortic arch / retroesophageal + developmental / developmental malformation / bone / misshapen…
# [29] = group: maternal, systemic / in life observation / body weight / body weight + systemic / in life observation / body weight / body weight gain
# [30] = group: maternal, systemic / in life observation / body weight / body weight + systemic / in life observation / body weight / body weight gain + reproductive…
# [31] = systemic / in life observation / mortality / mortality + systemic / organ weight / kidney / absolute + systemic / organ weight / kidney / …
# [32] = group: offspring, developmental / offspring survival late / [other] / [other] + developmental / offspring survival late / viability index / viability index + …
# [33] = group: offspring, systemic / pathology microscopic / kidney / dilatation
# [34] = group: parental, systemic / in life observation / body weight / body weight + systemic / in life observation / food consumption / food consumption + systemic…
compound,measurement,setting,value
COCC(=O)N(c1c(C)cccc1C)[C@H](C)C(=O)OC [Metalaxyl-M],LEL,[1],38.6 mg/kg/day
same,LOAEL,[1],38.6 mg/kg/day
same,NEL,[1],7.25 mg/kg/day
same,NOAEL,[1],7.25 mg/kg/day
same,LEL,[2]; [18],44.8 mg/kg/day
same,NEL,[2]; [18],16.8 mg/kg/day
same,LOAEL,[2]; systemic / pathology microscopic / liver / infiltration cellular + systemic / pathology microscopic / liver / inclusion body …,90.5 mg/kg/day
CC[C@H]1CCC[C@H](O[C@H]2CC[C@H](N(C)C)[C@@H](C)O2)[C@@H](C)C(=O)C2=C[C@@H]3[C@@H](C=C(C)[C@@H]4C[C@@H](O[C@@H]5O[C@@H](C)[C@H](OC)[C@@H](OC)[C@H]5OC)C[C@@H]34)[C@@H]2CC(=O)O1.CC[C@H]1CCC[C@H](O[C@H]2CC[C@H](N(C)C)[C@@H](C)O2)[C@@H](C)C(=O)C2=C[C@@H]3[C@@H](C=C[C@@H]4C[C@@H](O[C@@H]5O[C@@H](C)[C@H](OC)[C@@H](OC)[C@H]5OC)C[C@@H]34)[C@@H]2CC(=O)O1 [Spinosad],LOAEL,[3]; systemic / pathology microscopic / lymph node / vacuolization + systemic / pathology microscopic / spleen / vacuolization,8.22 mg/kg/day
same,LEL,[3]; [19],8.22 mg/kg/day
same,NEL,[3]; [19],2.72 mg/kg/day
same,NOAEL,[3]; [19],2.72 mg/kg/day
same,LEL,[4]; [20],9.5 mg/kg/day
same,LOAEL,[4]; [20],24.1 mg/kg/day
same,NEL,[4]; [21],2.4 mg/kg/day
same,NOAEL,[4]; [21],9.5 mg/kg/day
same,LOAEL,[5]; systemic / hematology / leukocyte (wbc) count differential / leukocyte (wbc),41.5 mg/kg/day
same,NOAEL,[5]; systemic / hematology / leukocyte (wbc) count differential / leukocyte (wbc) + systemic / organ weight / liver / relative to body weight + …,1.3 mg/kg/day
same,NEL,[5]; systemic / organ weight / brain / relative to body weight,1.1 mg/kg/day
same,LEL,[5]; systemic / organ weight / brain / relative to body weight + systemic / in life observation / body weight / body weight + systemic / in life …,32.7 mg/kg/day
same,LOAEL,[6]; [22],68.5 mg/kg/day
same,NOAEL,[6]; [22],33.9 mg/kg/day
same,LEL,[6]; [23],33.9 mg/kg/day
same,NEL,[6]; [23],< 33.9 mg/kg/day
same,LEL,[7]; [24],10 mg/kg/day
same,NEL,[7]; [24],3 mg/kg/day
same,NOAEL,"[7]; group: offspring, systemic / in life observation / clinical signs / hemorrhagic perineal discharge",10 mg/kg/day
same,LOAEL,"[7]; group: offspring, systemic / in life observation / clinical signs / hemorrhagic perineal discharge + systemic / in life observation / body weight / offspring…",100 mg/kg/day
same,LEL,[7]; [25],100 mg/kg/day
same,LOAEL,[7]; [25],100 mg/kg/day
same,NEL,[7]; [25],10 mg/kg/day
same,NOAEL,[7]; [25],10 mg/kg/day
same,NEL,[7]; [26],10 mg/kg/day
same,NOAEL,[7]; [26],10 mg/kg/day
same,LOAEL,"[7]; group: reproductive, reproductive / offspring survival early / litter size / litter size + reproductive / reproductive performance / dystocia / dystocia",100 mg/kg/day
same,LEL,"[7]; group: reproductive, reproductive / offspring survival early / litter size / litter size + reproductive / reproductive performance / dystocia / dystocia + …",100 mg/kg/day
same,LEL,[8],22.5 mg/kg/day
same,LOAEL,[8],22.5 mg/kg/day
same,NEL,[8],7.5 mg/kg/day
same,NOAEL,[8],7.5 mg/kg/day
same,LEL,[9],9.73 mg/kg/day
same,LOAEL,[9],9.73 mg/kg/day
same,NEL,[9],4.89 mg/kg/day
same,NOAEL,[9],4.89 mg/kg/day
same,LEL,[10],42.7 mg/kg/day
same,LOAEL,[10],> 42.7 mg/kg/day
same,NOAEL,[10],≥ 42.7 mg/kg/day
"O=C(O)CCCOc1ccc(Cl)cc1Cl [2,4-DB]",LEL,[11],25 mg/kg/day
same,LOAEL,[11],25 mg/kg/day
same,NEL,[11],8 mg/kg/day
same,NOAEL,[11],8 mg/kg/day
same,LOAEL,[12]; [27],30 mg/kg/day
same,NOAEL,[12]; [27],3 mg/kg/day
same,NEL,[12]; systemic / organ weight / liver / absolute + systemic / organ weight / heart / absolute + systemic / organ weight / spleen / absolute + …,90 mg/kg/day
same,LEL,[13]; [28],125 mg/kg/day
same,LOAEL,[13]; [28],125 mg/kg/day
same,NEL,[13]; [28],62.5 mg/kg/day
same,NOAEL,[13]; [28],62.5 mg/kg/day
same,LEL,[13]; [29],62.5 mg/kg/day
same,LOAEL,[13]; [29],62.5 mg/kg/day
same,NEL,[13]; [30],31.2 mg/kg/day
same,NOAEL,[13]; [30],31.2 mg/kg/day
same,LEL,[14],50 mg/kg/day
same,LOAEL,[14],50 mg/kg/day
same,NEL,[14],15.8 mg/kg/day
same,NOAEL,[14],15.8 mg/kg/day
same,LOAEL,[15]; [31],112 mg/kg/day
same,NOAEL,[15]; [31],37.5 mg/kg/day
same,LEL,[15]; systemic / in life observation / mortality / mortality + systemic / pathology microscopic / kidney / amyloid deposition + systemic / …,112 mg/kg/day
same,NEL,[15]; systemic / organ weight / kidney / absolute + systemic / organ weight / kidney / relative to body weight + systemic / organ weight / liver…,37.5 mg/kg/day
same,LOAEL,[16]; [32],112 mg/kg/day
same,NOAEL,[16]; [32],25 mg/kg/day
same,LEL,[16]; [33],25 mg/kg/day
same,NEL,[16]; [33],5 mg/kg/day
same,LEL,[16]; [34],112 mg/kg/day
same,LOAEL,[16]; [34],112 mg/kg/day
same,NEL,[16]; [34],25 mg/kg/day
same,NOAEL,[16]; [34],25 mg/kg/day
same,LEL,[17],41.9 mg/kg/day
same,LOAEL,[17],41.9 mg/kg/day
same,NEL,[17],4.16 mg/kg/day
same,NOAEL,[17],4.16 mg/kg/day
